Test results: patent publication US8604243B2, “Fluorescent ion indicators for cadmium and lanthanide ion detection” (Life Technologies Corporation, priority 2005, dated 2013)

What was measured:
Format in all cases: binding
[1] = Fluorescence titration of indicator with cadmium ions in cuvettes; conditions: for F = F(bind)/F0, Cd^2+: fluorescent response to binding, in brackets
Procedure: (§1) A dye stock (5.0×10^−4 M) solution of Compound 109 was prepared in DMSO. Lanthanide, Lead, cadmium and mercury ion solutions from 0-40 nM were prepared in disposable cuvettes by diluting a 100 mM metal ion stock solutions to a final volume of 2 mL with 100 mM MOPS (pH7). For the lanthanide titration, dye stock was diluted to give a final concentration of 50 nM. For the cadmium titration, dye stock was added to give a final concentration of 2.5×10^−7 M. For the mercury titrations, dye stock was added to give a final concentration of 2.5×10^−7 M. Samples were excited at 492 nm and fluorescence was recorded at 517 nm.

[2] = Fluorescence titration of indicator with mercury ions in cuvettes
Procedure: as §1

[3] = Fluorescence titration of indicator with lead ions; conditions: for Kd: Table 3 binding constant, read-out: Kd Pb^2+; for F = F(bind)/F0, Pb^2+: fluorescent response to binding, in brackets
Procedure: as §1

[4] = Fluorescence titration of indicator with zinc ions; conditions: for Kd: Table 3 binding constant, read-out: Kd Zn^2+; for F = F(bind)/F0, Zn^2+: fluorescent response to binding, in brackets
[5] = Fluorescence titration of indicator with calcium ions; conditions: for Kd: Table 3 binding constant, read-out: Kd Ca^2+; for F = F(bind)/F0, Ca^2+: fluorescent response to binding, in brackets
[6] = Fluorescence titration of indicator with lanthanide ions in cuvettes; conditions: for F = F(bind)/F0, La^3+: fluorescent response to binding, in brackets
Procedure: as §1

[7] = Fluorescence titration of indicator with manganese ions; conditions: for Kd: Table 3 binding constant, read-out: Kd Mn^2+; for F = F(bind)/F0, Mn^2+: fluorescent response to binding, in brackets
[8] = Table 3 binding constant, read-out: Kd Cd^2+
[9] = Table 3 binding constant, read-out: Kd La^3+

Row | Compound | Kd ([1]; 100 mM MOPS pH7, dye 2.5×10^−7 M, excited 492 nm, recorded 517 nm, read-out: Kd cadmium (Cd(II))) [µM] | Kd [1, 8] [µM] | F = F(bind)/F0, Cd^2+ [1] | Kd ([2]; 100 mM MOPS pH7, dye 2.5×10^−7 M, excited 492 nm, recorded 517 nm, read-out: Kd mercury (Hg2+)) [µM] | Kd ([2]; Table 3 binding constant, read-out: Kd Hg^2+) [µM] | F = F(bind)/F0, Hg^2+ ([2]; fluorescent response to binding, in brackets) | Kd [3] [µM] | F = F(bind)/F0, Pb^2+ [3] | Kd [4] [µM] | F = F(bind)/F0, Zn^2+ [4] | Kd [5] [µM] | F = F(bind)/F0, Ca^2+ [5] | Kd ([6]; 100 mM MOPS pH7, dye 50 nM, excited 492 nm, recorded 517 nm, read-out: Kd lanthanide (La(III))) [µM] | Kd [6, 9] [µM] | F = F(bind)/F0, La^3+ [6] | Kd [7] [µM] | F = F(bind)/F0, Mn^2+ [7]
1 | O=C([O-])CN(CC(=O)[O-])c1ccccc1OCCOCCOc1cc(-c2c3cc(F)c(=O)cc-3oc3cc([O-])c(F)cc23)ccc1N(CC(=O)[O-])CC(=O)[O-].[K+].[K+].[K+].[K+].[K+] [Compound 109] | 0.061 | 0.061 | 11 | 2.16 | 2.16 | 20 | 38.9 | 20 | 27.1 | 8.8 | 21.4 | 68 | 0.0103 | 0.01 | 47 | – | –
2 | CN(C)c1ccc2c(-c3ccc(N(CC(=O)[O-])CC(=O)O)c(OCCOCCOc4ccccc4N(CC(=O)O)CC(=O)O)c3)c3ccc(=[N+](C)C)cc-3oc2c1 [Compound 112] | – | 0.395 | 39 | – | – | – | 5.44 | 29 | 35.8 | 17 | 44.9 | 161 | – | 0.359 | 36 | 80.2 | 1.82
3 | O=C([O-])CN(CC(=O)O)c1ccc(C2=c3cc4c5c(c3Oc3c2cc2c6c3CCCN6CCC2)CCC[N+]=5CCC4)cc1OCCOCCOc1ccccc1N(CC(=O)O)CC(=O)O [Compound 115] | – | 0.331 | – | – | – | – | 0.189 | 33 | 28.6 | 20 | 67.8 | 114 | – | 0.352 | 32 | 136 | 2.5
